Measurements from article PMC2935147 (Journal of medicinal chemistry, 2010).
Counter-ions that a name gives are not always drawn. Like-named read-outs stand apart in the source and are kept apart here. Values belong to the compound of their own block, whether it stands above or below them.

What was measured:
[1] = target: T1, human P2Y6 receptor (Homo sapiens, UniProt Q15077); test: PLC activation; type: cell-based; settings: for activity at the P2Y6 receptor: 1321N1 cells; for Pharmacological properties at hP2Y6 receptor: summary in words, Table 4
[2] = target: T2, human P2Y2 receptor (Homo sapiens, UniProt P41231); test: PLC activation; type: cell-based
[3] = target: human P2Y14 receptor; settings: read-out: EC50 at the P2Y14 receptor; cited from earlier work
[4] = target: T1, human P2Y6 receptor; settings: cited from earlier work
[5] = Stability in acidic aqueous solution; type: physicochemical; settings: HCl buffer (pH 1.2)
[6] = target: T1, human P2Y6 receptor; type: cell-based
[7] = target: human P2Y4 receptor (Homo sapiens, UniProt P51582); settings: read-out: EC50 hP2Y4; ref Kim et al.[26]; cited from earlier work
[8] = target: T2, human P2Y2 receptor; settings: read-out: EC50 hP2Y2; ref Kim et al.[26]; cited from earlier work
[9] = ratio of EC50 values, PLC activation

T1 sequence (Q15077 whole entry): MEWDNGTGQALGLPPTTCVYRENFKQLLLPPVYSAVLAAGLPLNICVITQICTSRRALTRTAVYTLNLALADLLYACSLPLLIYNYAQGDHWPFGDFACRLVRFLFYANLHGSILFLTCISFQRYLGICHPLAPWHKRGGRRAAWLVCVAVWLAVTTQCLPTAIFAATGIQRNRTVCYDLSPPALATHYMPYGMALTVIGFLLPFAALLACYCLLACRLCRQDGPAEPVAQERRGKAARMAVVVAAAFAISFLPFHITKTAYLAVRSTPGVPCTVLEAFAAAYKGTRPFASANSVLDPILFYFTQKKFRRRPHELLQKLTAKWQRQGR
T2 sequence (P41231 whole entry): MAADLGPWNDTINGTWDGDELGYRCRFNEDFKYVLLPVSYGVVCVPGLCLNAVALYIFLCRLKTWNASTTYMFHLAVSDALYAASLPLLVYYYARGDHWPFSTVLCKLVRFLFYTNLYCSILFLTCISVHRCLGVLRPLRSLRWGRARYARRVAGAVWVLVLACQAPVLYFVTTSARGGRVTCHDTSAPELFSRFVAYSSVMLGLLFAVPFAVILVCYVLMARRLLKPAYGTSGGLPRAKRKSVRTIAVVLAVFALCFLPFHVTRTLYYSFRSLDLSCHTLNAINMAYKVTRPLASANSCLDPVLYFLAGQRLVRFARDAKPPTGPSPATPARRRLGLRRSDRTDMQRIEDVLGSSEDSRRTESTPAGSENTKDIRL
Sequence of human P2Y4 receptor (P51582 whole entry): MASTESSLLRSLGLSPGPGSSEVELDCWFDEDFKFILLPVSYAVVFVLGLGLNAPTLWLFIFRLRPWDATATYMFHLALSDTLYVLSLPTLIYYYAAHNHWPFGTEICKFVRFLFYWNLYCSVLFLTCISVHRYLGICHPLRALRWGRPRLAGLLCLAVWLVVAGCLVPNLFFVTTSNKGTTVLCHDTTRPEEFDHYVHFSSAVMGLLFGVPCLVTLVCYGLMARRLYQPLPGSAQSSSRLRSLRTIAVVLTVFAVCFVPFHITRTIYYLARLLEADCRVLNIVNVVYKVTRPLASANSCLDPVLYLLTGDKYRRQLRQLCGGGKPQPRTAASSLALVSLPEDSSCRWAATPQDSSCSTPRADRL

gain of potency at the P2Y6 receptor over (S)-methanocarba-2′-deoxy-UDP 6 ([1]; ratio of EC50 values): 5 fold
gain of potency at the P2Y6 receptor over UDP 1 ([1]; ratio of EC50 values): 7 fold
Structure (SMILES): N.O=c1ccn([C@@]23C[C@H]2[C@H](COP(=O)(O)OP(=O)(O)O)[C@@H](O)[C@H]3O)c(=O)[nH]1 [Compound 7, (S)-Methanocarba-uridine-5′-diphosphate triethylammonium salt]

Structure (SMILES): CCN(CC)CC.O=C(Cn1c(=O)ccn([C@@H]2O[C@H](COP(=O)(O)OP(=O)(O)OP(=O)(O)O[C@H]3O[C@H](CO)[C@@H](O)[C@H](O)[C@H]3O)[C@@H](O)[C@H]2O)c1=O)c1ccccc1 [Compound 30, 3-Phenacyluridine-5′-glucose-1′-triphosphate triethylammonium salt]
activity at the P2Y6 receptor ([1]; PLC activation): only weakly active

EC50 [1]: 678 ± 18 nM
EC50 [2]: > 10000 nM
Structure (SMILES): CO/N=c1/ccn([C@@H]2O[C@H](COP(=O)(O)CP(=O)(O)O)[C@@H](O)[C@H]2O)c(=O)[nH]1 [Compound 16, N^4-Methoxycytidine-5′-α,β-methylenediphosphate triethylammonium salt]

Structure (SMILES): CCN(CC)CC.O=c1ccn([C@@H]2O[C@H](COP(=O)(O)OP(=O)(O)OP(=O)(O)Oc3ccccc3)[C@@H](O)[C@H]2O)c(=O)[nH]1 [Compound 26, P^1-Uridine-5′-P^3-phenyl-triphosphate triethylammonium salt]
Pharmacological properties at hP2Y6 receptor [1]: weak agonist, selective

Structure (SMILES): Nc1ccn([C@@H]2O[C@H](COP(=O)(O)OP(=O)(O)O)[C@@H](O)[C@H]2O)c(=O)n1 [CDP]
EC50 [3]: > 10000 nM
activity at the human P2Y6 receptor [4]: nearly inactive

EC50 [1]: 2550 ± 700 nM
Structure (SMILES): CC(C)(C)O/N=c1/ccn([C@@H]2O[C@H](COP(=O)(O)OP(=O)(O)O)[C@@H](O)[C@H]2O)c(=O)[nH]1 [Compound 14, N^4-t-Butyloxycytidine-5′-diphosphate ammonium salt]

Structure (SMILES): O=c1ccn([C@H]2[C@H](O)[C@H](O)[C@@]3(COP(=O)(O)OP(=O)(O)O)C[C@H]23)c(=O)[nH]1 [Compound 8, (N)-methanocarba UDP]
activity at the P2Y6 receptor ([4]; previously found): inactive

Structure (SMILES): CCN(CC)CC.O=c1ccn([C@@H]2O[C@H](COP(=O)(O)CP(=O)(O)OP(=O)(O)OC[C@H]3O[C@@H](n4ccc(=O)[nH]c4=O)[C@H](O)[C@@H]3O)[C@@H](O)[C@H]2O)c(=O)[nH]1 [Compound 22, P^1,P^3-Di(uridine-5′-)α,β-methylenetriphosphate triethylammonium salt]
reduction of P2Y6 receptor potency relative to Up3U 21 ([1]; ratio of EC50 values): 5 fold
Pharmacological properties at hP2Y6 receptor [1]: weak agonist, selective

half-life at 0.2 mg/mL [5]: 218 h
EC50 [6]: 370 nM
Structure (SMILES): O=c1ccn([C@@H]2O[C@H](COP(=O)(O)OP(=O)(O)OP(=O)(O)OC[C@H]3O[C@@H](n4ccc(=O)[nH]c4=O)[C@H](O)[C@@H]3O)[C@@H](O)[C@H]2O)c(=O)[nH]1 [Compound 21, Up3U]
Pharmacological properties at hP2Y6 receptor [1]: moderately potent agonist, only 4-5 fold selective

Structure (SMILES): CCN(CC)CC.CO/N=c1/ccn([C@@H]2O[C@H](COP(=O)(O)OP(=O)(O)O)[C@@H](O)[C@H]2O)c(=O)[nH]1 [Compound 12, N^4-Methoxycytidine-5′-diphosphate ammonium salt]
selectivity P2Y6 versus P2Y14 receptor ([1]; PLC via P2Y6 versus inhibition of cyclic AMP accumulation in HEK-293 cells expressing hP2Y14): 47 fold
gain of potency at the P2Y6 receptor over UDP 1 ([1]; ratio of EC50 values): 4 fold
selectivity P2Y6 versus P2Y2 receptor [1, 9]: 51 fold
Pharmacological properties at hP2Y6 receptor [1]: selective, potent agonist

Structure (SMILES): CCN(CC)CC.CO/N=c1/ccn([C@@H]2O[C@H](COP(=O)(O)OP(=O)(O)OP(=O)(O)Oc3ccccc3)[C@@H](O)[C@H]2O)c(=O)[nH]1 [Compound 33, N^4-Methoxycytidine-5′-phenyl-triphosphate triethylammonium salt]
activity at the P2Y6 receptor ([1]; PLC activation): weakly activated

Structure (SMILES): CCN(CC)CC.CO/N=c1\ccn([C@@H]2O[C@H](COP(=O)(O)OP(=O)(O)OP(=O)(O)O)[C@@H](O)[C@H]2O)c(=O)[nH]1 [Compound 20, N^4-Methoxycytidine-5′-triphosphate ammonium salt]
gain of potency at the P2Y6 receptor over UTP 17 ([1]; ratio of EC50 values): > 100 fold

Structure (SMILES): CCN(CC)CC.O=c1ccn([C@@H]2O[C@H](COP(=O)(O)OP(=O)(O)OP(=O)(O)O[C@H]3O[C@H](CO)[C@@H](O)[C@H](O)[C@H]3O)[C@@H](O)[C@H]2O)c(=O)[nH]1 [Compound 27, P^1-Uridine-5′-P^3-[1]glucose-1′-triphosphate triethylammonium salt]
activity at the P2Y6 receptor ([1]; PLC activation): only weakly activated
activity at the P2Y6 receptor ([1]; PLC activation, listed as UTP-glucose): inactive
Pharmacological properties at hP2Y6 receptor [1]: ~inactive

Pharmacological properties at hP2Y6 receptor [1]: ~inactive
Structure (SMILES): O=c1ccn([C@@H]2O[C@H](COP(=O)(O)OP(=O)(O)OP(=O)(O)O)[C@@H](O)[C@H]2O)c(=O)[nH]1 [Compound 17, uridine-5′-triphosphate, reference compound]

Structure (SMILES): CCN(CC)CC.O=c1ccn([C@@]23C[C@H]2[C@@H]2COP(=O)(O)OP(=O)(O)O[C@H]2[C@H]3O)c(=O)[nH]1 [Compound 9, (S)-Methanocarba-uridine-3′, 5′-cyclic diphosphate triethylammonium salt]
activity at the P2Y6 receptor ([1]; PLC activation): inactive

Structure (SMILES): O=c1ccn(C2C(O)C(O)C3(COP(=O)(O)OP(=O)(O)OP(=O)(O)O)CC23)c(=O)[nH]1 (stereo not drawn) [Compound 19, (N)-methanocarba UTP]
EC50 [7]: 85 ± 5 nM
EC50 [8]: 16 ± 7 nM
EC50 ([4]; read-out: EC50 hP2Y6, NE = no effect at 10 μM, ref Kim et al.[26]): > 10000 nM

Structure (SMILES): CCN(CC)CC.CO/N=c1/ccn([C@@H]2O[C@H](COP(=O)(O)OP(=O)(O)OP(=O)(O)OC[C@H]3O[C@@H](n4ccc(=O)[nH]c4=O)[C@H](O)[C@@H]3O)[C@@H](O)[C@H]2O)c(=O)[nH]1 [Compound 23, N^4-methoxy-Cp3U]
enhancement of P2Y6 receptor potency relative to Up3U 21 ([1]; ratio of EC50 values): 22 fold
Pharmacological properties at hP2Y6 receptor [1]: selective, potent agonist
EC50 [6]: 83 nM

Structure (SMILES): CCN(CC)CC.O=c1ccn([C@@H]2O[C@H](COP(=O)(O)CP(=O)(O)OP(=O)(O)O[C@H]3O[C@H](CO)[C@@H](O)[C@H](O)[C@H]3O)[C@@H](O)[C@H]2O)c(=O)[nH]1 [Compound 31, Uridine-5′-glucose-1′-α,β-methylenetriphosphate triethylammonium salt]
activity at the P2Y6 receptor ([1]; PLC activation): only weakly active
Pharmacological properties at hP2Y6 receptor [1]: ~inactive

EC50 [6]: 200 nM
Structure (SMILES): O=c1ccn([C@@H]2O[C@H](COP(=O)(O)OP(=O)(O)O)[C@@H](O)[C@H]2O)c(=O)[nH]1 [Compound 1, uridine-5′-diphosphate]

Structure (SMILES): CCN(CC)CC.O=c1[nH]/c(=N\OCc2ccccc2)ccn1[C@@H]1O[C@H](COP(=O)(O)OP(=O)(O)O)[C@@H](O)[C@H]1O [Compound 15, N^4-Benzyloxycytidine-5′-diphosphate ammonium salt]
Pharmacological properties at hP2Y6 receptor [1]: selective, potent agonist

Structure (SMILES): CCN(CC)CC.CO/N=c1/ccn([C@@H]2O[C@H](COP(=O)(O)OP(=O)(O)OP(=O)(O)O[C@H]3O[C@H](CO)[C@@H](O)[C@H](O)[C@H]3O)[C@@H](O)[C@H]2O)c(=O)[nH]1 [Compound 32, N^4-Methoxycytidine-5′-glucose-1′-triphosphate triethylammonium salt]
selectivity P2Y6 versus P2Y2 receptor [1, 9]: > 100 fold
selectivity P2Y6 versus P2Y4 receptor [1, 9]: > 100 fold

Structure (SMILES): CCN(CC)CC.O=c1ccn([C@@H]2O[C@H](COP(=O)(O)OP(=O)(O)OP(=O)(O)OC3CCCCC3)[C@@H](O)[C@H]2O)c(=O)[nH]1 [Compound 25, P^1-Uridine-5′-P^3-cyclohexyl-triphosphate triethylammonium salt]
Pharmacological properties at hP2Y6 receptor [1]: weak agonist, nonselective vs. P2Y2 receptor

EC50 [1]: 104 ± 23 nM
Structure (SMILES): CCO/N=c1/ccn([C@@H]2O[C@H](COP(=O)(O)OP(=O)(O)O)[C@@H](O)[C@H]2O)c(=O)[nH]1 [Compound 13, N^4-Ethoxycytidine-5′-diphosphate ammonium salt]

EC50 [6]: 630 nM
Structure (SMILES): CONc1ccn([C@@H]2O[C@H](COP(=O)(O)OP(=O)(O)OP(=O)(O)OC[C@H]3O[C@@H](n4ccc(NOC)nc4=O)[C@H](O)[C@@H]3O)[C@@H](O)[C@H]2O)c(=O)n1 [Compound 24, N^4-OMe-Cp3(N^4-OMe)C]

EC50 [6]: 50 nM
Structure (SMILES): O=c1[nH]c(=O)n([C@@H]2O[C@H](COP(=O)(O)OP(=O)(O)O)[C@@H](O)[C@H]2O)cc1I [Compound 3, 5-iodo-UDP]
